Results published in patent US20230203558A1, “[…] FOR USE IN A METHOD OF DIAGNOSIS OF VIRAL INFECTION, KIT AND SYSTEM” (Original G B.V., priority 2020, published 2023).
“And” between values parts separate entries of the source, which are not always exact repeats. Identical values can stand only once. Where no end group is shown, it is not given here.

Assays:
SARS-CoV-2 main protease [1] = target: T1, SARS-CoV-2 main protease (Severe acute respiratory syndrome coronavirus 2, UniProt P0DTD1)
SARS-CoV-2 = experiment: Clinical samples PCR-characterized for SARS-CoV-2, relative activity on DeNIRO; details: peptide 20 μM; for Relative activity class, SARS-CoV-2 positive (swab): room temperature, 0-60 minutes
[2] = test system: Mycobacterium tuberculosis
SARS-CoV-2 main protease [3] = target: T1, SARS-CoV-2 main protease; details: 0.1 mg/mL peptide; for Cleavage of peptide (site) by SARS-CoV-2 main protease: protease 10 μM, RP-HPLC-MS
Experimental: Mass spectra were acquired on a Agilent Technologies 6530 Accurate Mass Q-TOF LC/MS with an Agilent Infinity 1260/1290 HPLC. RP-HPLC was carried out using a RP-aqueous 030 analytical column, 5 uM, 150×2.0 mm [Phenomenex]. The mobile phase was A) 10 mM ammonium formate/2% v/v MeCN, pH 6.2 and B) 10 mM ammonium formate/90% v/v MeCN, pH 6.2.
The gradient used was 0.2 mL-min, 25 minutes.
0.1 mg/mL solution of each peptide in Table 3 was incubated with SARS-CoV-2 main protease (at 10 μM).

elastase = experiment: Relative activity (NIR fluorescence) of quenched peptides with control protease elastase; type: biochemical
Rhinovirus = experiment: Clinical sample, Rhinovirus positive, relative activity on DeNIRO; details: peptide 20 μM
saliva proteases = experiment: Cross reactivity to saliva proteases; type: biochemical; parameters: key: −: Not observed; +: observed

Cy7-Ahx-[PEG1]-HQS[PEG1]K(QC1)-CONH2 [Peptide 2]
Ratio for SARS-CoV-2 main protease to elastase (SARS-CoV-2 main protease [1]): 54 | Relative activity class, SARS-CoV-2 negative (saliva) (SARS-CoV-2): − (a relative activity of <10% indicates absence of SARS-CoV-2 (−)) | Relative activity class, SARS-CoV-2 negative (swab) (SARS-CoV-2): − (a relative activity of <10% indicates absence of SARS-CoV-2 (−)) | Relative activity class, SARS-CoV-2 positive (saliva) (SARS-CoV-2): + (A relative activity of >10% indicates the presence of SARS-CoV-2 (+)) | Relative activity class, SARS-CoV-2 positive (swab) (SARS-CoV-2): + (A relative activity of >10% indicates the presence of SARS-CoV-2 (+)) | Relative activity class, Mycobacterium tuberculosis positive [2]: − (key: A relative activity of >10% indicates the presence of SARS-CoV-2 (+); a relative activity of <10% indicates absence of SARS-CoV-2 (−)) | Cleavage of peptide (site) by SARS-CoV-2 main protease (SARS-CoV-2 main protease [3]): between Q-S | Relative activity, Elastase 0.2 μM (elastase; peptide concentration 5 μM): 0.1 | Relative activity, Elastase 0.2 μM (elastase; peptide concentration 20 μM): 0.9 | Relative activity class, Rhinovirus positive (Rhinovirus): − (a relative activity of <10% indicates absence of SARS-CoV-2 (−)) | Cross reactivity to saliva proteases (saliva proteases): −

Cy7-Ahx-[PEG1]VLQS[PEG1]K(QC1)-CONH2 [Peptide 1]
Ratio for SARS-CoV-2 main protease to elastase (SARS-CoV-2 main protease [1]): 3.5 | Relative activity class, SARS-CoV-2 negative (saliva) (SARS-CoV-2): − (a relative activity of <10% indicates absence of SARS-CoV-2 (−)) | Relative activity class, SARS-CoV-2 negative (swab) (SARS-CoV-2): − (a relative activity of <10% indicates absence of SARS-CoV-2 (−)) | Relative activity class, SARS-CoV-2 positive (saliva) (SARS-CoV-2): + (A relative activity of >10% indicates the presence of SARS-CoV-2 (+)) | Relative activity class, SARS-CoV-2 positive (swab) (SARS-CoV-2): + (A relative activity of >10% indicates the presence of SARS-CoV-2 (+)) | Relative activity class, Mycobacterium tuberculosis positive [2]: − (key: A relative activity of >10% indicates the presence of SARS-CoV-2 (+); a relative activity of <10% indicates absence of SARS-CoV-2 (−)) | Cleavage of peptide (site) by SARS-CoV-2 main protease (SARS-CoV-2 main protease [3]): between Q-S | Relative activity, Elastase 0.2 μM (elastase; peptide concentration 5 μM): 7 | Relative activity, Elastase 0.2 μM (elastase; peptide concentration 20 μM): 8.5 | Relative activity class, Rhinovirus positive (Rhinovirus): − (a relative activity of <10% indicates absence of SARS-CoV-2 (−)) | Cross reactivity to saliva proteases (saliva proteases): −

Cy7-Ahx-AAFAA-K(QC1)-CONH2 [Peptide 3]
Ratio for SARS-CoV-2 main protease to elastase (SARS-CoV-2 main protease [1]): 0.15 | Relative activity, SARS-CoV-2 main protease 0.2 μM (SARS-CoV-2 main protease [1]; pH 7.3): 0.4 and 0.6 | Cleavage fragment (SARS-CoV-2 main protease [3]; SARS-CoV-2 main protease 10 μM, 4 hours): NONE | Cleavage of peptide (site) by SARS-CoV-2 main protease (SARS-CoV-2 main protease [3]): No cleavage was observed | Relative activity, Elastase 0.2 μM (elastase; peptide concentration 5 μM): 2.2 | Relative activity, Elastase 0.2 μM (elastase; peptide concentration 20 μM): 87.1

Ex 1.1: fluorescently quenched peptide (TVRLQSGF) with fluorescent agent, non-fluorescent agent and cleavage site specific for a Coronavirus (also: fluorophore and quencher, sites not given here)
increase in RFU (SARS-CoV-19 virus): An increase in RFU is detected
